Assay results published in US20110207705A1, “OVIEDOMYCIN DERIVATIVES, METHOD FOR OBTAINING SAME AND USE THEREOF” (UNIVERSIDAD DE OVIEDO, priority 2008, published 2011).
Where two headings read alike, the source gives them in different places.

What was measured:
tumour cell lines = experiment: Anti-tumour activity against the series of tumour cell lines (SRB test); assay type: cell-based; settings: tumour cell lines of Table 5, in words
Procedure: (§1) The OVM derivatives were tested against a series of cell lines from tumours. Cell growth and viability were quantitatively determined with a colorimetric type test, using the reaction with sulforhodamine B (SRB), according to the technique described by Faircloth et al. (Journal of Tissue and Culture Methods 1988, 11, 201-205).
(§2) 96-well microtiter plates are inoculated with cells (5×10^3 cells per well) in aliquots of 195 μl of medium, incubating them for 18 h, in medium without added compound, to allow the cells to adhere to the surface. Next, the compounds to be tested are added, in samples of 5 μl, in a concentration range of 10 to 10^−8 μg/ml, dissolved in DMSO/EtOH (0.2% in PS buffer). After 48 h exposure, the anti-tumour effect is measured using the SRB technique: the cells are fixed by adding 50 μl of cold trichloroacetic acid (50%) (w/v) and it is incubated for 60 min. at 4° C. The plates are washed with deionized water and dried. 100 μl of SRB solution (0.4% w/v in 1% acetic acid) are added to each well, and it is incubated for 10 min. at ambient temperature. The unbound SRB is eliminated, washing with 1% acetic acid. The plates are air dried and the bound colorant is dissolved with Tris buffer. The optical densities are read in an automatic dish spectrophotometer reader at a wavelength of 490 nm.

A549 (lung) = experiment: Anti-tumour activity, sulforhodamine B (SRB) colorimetric cell growth test; assay type: cell-based; settings: 48 h exposure, read-out: GI50 (concentration at which the compound tested inhibits 50% of the cell growth in comparison with untreated cells)
Procedure: as §1, §2

MDA-MB-231 (breast) = experiment: as above; assay type: cell-based; settings: 48 h exposure, read-out: GI50 (concentration at which the compound tested inhibits 50% of the cell growth in comparison with untreated cells)
Procedure: as §1, §2

HT29 (colon) = experiment: as above; assay type: cell-based; settings: read-out: GI50 (concentration at which the compound tested inhibits 50% of the cell growth in comparison with untreated cells)
Procedure: as §1, §2

[1] = spontaneous dehydration and oxidation; J. Am. Chem. Soc. 1999, 121, 1786-1794; cited from earlier work

| Compound | GI50 values (in words) (tumour cell lines) | GI50 (A549 (lung)) [µM] | GI50 (MDA-MB-231 (breast)) [µM] | GI50 (HT29 (colon); 48 h exposure) [µM] | GI50 (A549 (lung); Homo sapiens) [µM] | GI50 (MDA-MB-231 (breast); Homo sapiens) [µM] | GI50 (HT29 (colon); Homo sapiens, HT-29, 48 h exposure) [µM] | anti-tumour activity compared with OVM (tumour cell lines) | stability [1] |
| --- | --- | --- | --- | --- | --- | --- | --- | --- | --- |
| CC1=CC(=O)[C@@H]2c3cc4cccc(O)c4c(O)c3C(=O)C[C@]2(O)C1 [formula X, prejadomycin] | submicromolar range | 0.29 | 0.24 | 1.29 | – | – | – | clearly greater activities than that of the OVM | – |
| prejadomycin 2-carboxylate [formula VII] | submicromolar range | 0.6 | 0.38 | 1.17 | – | – | – | clearly greater activities than that of the OVM | – |
| Cc1cc(O)c2c3c(c(O)c(O)c2c1)C(=O)c1c(O)cccc1C3=O [formula VIII, 5-hydroxy-dehydro-rabelomycin] | – | 6.24 | 2.56 | 8.03 | – | – | – | – | – |
| C[C@]1(O)CC(=O)c2c(cc(O)c3c2C(=O)c2cccc(O)c2C3=O)C1 [formula VI, rabelomycin] | – | – | – | – | 5.32 | 6.8 | 10.9 | – | – |
| 4a,12b-dehydro-UWM6 [formula IX] | submicromolar range | 0.77 | 0.65 | 1.85 | – | – | – | clearly greater activities than that of the OVM | – |
| Cc1c(O)c2cc(O)c3c(=O)c4c(O)cccc4c(=O)c3c2c(=O)c1=O [OVM, Oviedomycin] | – | 8.7 | 5.6 | 6.9 | – | – | – | – | – |

Now from value to compound, other results behind:

| GI50 values (in words) (tumour cell lines) | GI50 (A549 (lung)) [µM] | GI50 (MDA-MB-231 (breast)) [µM] | GI50 (HT29 (colon); 48 h exposure) [µM] | GI50 (A549 (lung); Homo sapiens) [µM] | GI50 (MDA-MB-231 (breast); Homo sapiens) [µM] | GI50 (HT29 (colon); Homo sapiens, HT-29, 48 h exposure) [µM] | Compound | anti-tumour activity compared with OVM (tumour cell lines) | stability [1] |
| --- | --- | --- | --- | --- | --- | --- | --- | --- | --- |
| – | 3.1 | 7.06 | 14.1 | – | – | – | C[C@]1(O)CC(=O)c2c(cc(O)c3c2C(=O)c2ccc(O)c(O)c2C3=O)C1 [formula XIII, 9-hydroxy-rabelomycin] | – | – |
| – | > 100 | 24.8 | > 100 | – | – | – | C[C@]1(O)CC(=O)C2c3cc4cccc(O)c4c(O)c3C(=O)C[C@]2(O)C1 (stereo partly shown) [formula XI, UWM6] | – | unstable and spontaneously becomes rabelomycin |
| – | 7.62 | 13.3 | 12.4 | – | – | – | 5-hydroxy-rabelomycin [formula XII] | – | – |
